These results are taken from article PMC5735979, “Total Coumarins from Hydrangea paniculata Show Renal Protective Effects in Lipopolysaccharide-Induced Acute Kidney Injury via Anti-inflammatory and Antioxidant Activities” (Frontiers in Pharmacology, 2017).

What all share (type): in vivo, C57BL/6 mice
Series [1] deals with peripheral blood leukocytes. Put plainly: Peripheral blood leukocyte counts after LPS injection. The following applies: LPS i.p. injection. As to the method:
To understand the effect of HP on peripheral leukocytes in LPS-induced septic mice, peripheral […] was collected in heparin pretreated tubes by retro-orbital bleeding at 4, 8, 12, 24, and 48 h post-LPS injection, and the number of monocytes, lymphocytes, and neutrophils in the […] at different time points was examined by an Automatic Hematology Analyzer (Celltac E MEK-7222, Nihon Kohden, Japan). The detailed experimental procedure is shown in Figure 1C, which is similar to that used to analyze the effect of HP treatment on LPS-induced AKI.

For series [2], the system named is caspase 3, 7, 8, 9 in kidney tissue. Put plainly: Tubular cell apoptosis and caspases in LPS-challenged kidneys (IHC, RT-qPCR, western blot). The following applies: MMF 10 mg/kg; magnitude less than HP at 40 mg/kg. As to the method: LPS from Escherichia coli 0111:B4 was purchased from Sigma-Aldrich (St. Louis, MO, USA), and freshly dissolved in sterile 0.9% NaCl solution buffer before i.p. injection. For the standard treatment experiment, low dosage of LPS was used for induction of kidney injury. Inbred, 16–18 g, 4–6-week-old, male C57BL/6 mice were purchased from the SPF Biotechnology Co. Ltd. (Beijing, China). The sham group received 10 mL/kg saline by oral gavagedaily during the experiment, and at day 3 received a saline sham injection (i.p.). The LPS model group was exposed to the same procedure as the sham group, except receiving an LPS (20 mg/kg) injection (i.p.) at day 3, instead of saline. […]
For cleaved caspase 3 immunohistochemical analysis, the endogenous peroxidase activity in each section was quenched with 3% H2O2. […] Labelling was detected with a biotin-conjugated goat anti-rabbit IgG and avidin-biotin peroxidase complex. Cleaved caspase-3-positive cells in cortexes were scored in 30 random × 400 high-power fields (HPFs) with a ZEISS Observer A1 microscope (ZEISS, Germany).
The mRNA levels of selected important chemokines and cytokines in the kidneys, such as TNF-α, IL-1β, IL-6, intercellular adhesion molecule 1 (ICAM-1), vascular cell adhesion molecule 1 (VCAM-1), and MCP-1, as well as caspase family members, such as caspase 3, caspase 7, caspase 8, and caspase 9, were quantified by RT-qPCR. […]
Background: Quantitative PCR measures a nucleic acid by following its amplification.

Series [3] relates to macrophages and neutrophils in kidneys. Nature of the series: Flow cytometric determination of kidney leukocytes. The following applies: LPS-induced AKI mice, flow cytometry, N = 8. As to the method:
To determine the effect of HP on leukocyte populations in septic kidneys, kidney single-cell suspensions were prepared and analyzed. Briefly, the single-cell suspensions were first incubated with anti-mouse CD45-APC-Cy7 antibody (eBioscience, USA) for 30 min on ice. After washing, the cells were stained for 15 min on ice with fluorochrome-labeled monoclonal antibodies against anti-mouse Ly6G-PE, CD11c-FITC, or F4/80-APC (eBioscience, USA) for detection of neutrophils or macrophages. Six-color fluorescence flow cytometric analyses were performed (FACS Verse, BD, USA), and the data were analyzed with the FlowJo program (Tree Star, Inc., Ashland, CA, USA).
(In general: In flow cytometry, cells or beads pass a laser one at a time.)

Series [4] can be described thus: Pharmacokinetics study after single oral dose of HP. The following applies: for Blood drug concentration: 12 h after single oral dose of 50 mg/kg HP; for Blood drug concentration / concentration at 0.08 h / concentration at 0.25 h / concentration at 0.5 h / concentration at 1 h / concentration at 1.5 h / concentration at 2 h / concentration at 3 h / concentration at 4 h / concentration at 8 h / half-life / AUC(0-inf) / AUC(0-t) / Cmax / Tmax / MRT last / MRT inf: mice, n = 5; for Blood drug concentration / concentration at 0.08 h / concentration at 0.25 h / concentration at 0.5 h / concentration at 1 h / concentration at 1.5 h / concentration at 2 h / concentration at 3 h / concentration at 4 h / concentration at 8 h: mean ± SD; for concentration at 0.08 h / concentration at 0.25 h / concentration at 0.5 h / concentration at 1 h / concentration at 1.5 h / concentration at 2 h / concentration at 3 h / concentration at 4 h / concentration at 8 h / half-life / AUC(0-inf) / AUC(0-t) / Cmax / Tmax / MRT last / MRT inf: male, C57BL/6, mouse, plasma; for concentration at 0.08 h: 0.08 h after single oral dose of 50 mg/kg HP; for concentration at 0.08 h / concentration at 0.25 h / concentration at 0.5 h / concentration at 1 h / concentration at 1.5 h / concentration at 2 h / concentration at 3 h / concentration at 4 h / concentration at 8 h: read-out: Blood drug concentration; for concentration at 0.25 h: 0.25 h after single oral dose of 50 mg/kg HP; for concentration at 0.5 h: 0.5 h after single oral dose of 50 mg/kg HP; for concentration at 1 h: 1 h after single oral dose of 50 mg/kg HP; for concentration at 1.5 h: 1.5 h after single oral dose of 50 mg/kg HP; for concentration at 2 h: 2 h after single oral dose of 50 mg/kg HP; for concentration at 3 h: 3 h after single oral dose of 50 mg/kg HP; for concentration at 4 h: 4 h after single oral dose of 50 mg/kg HP; for concentration at 8 h: 8 h after single oral dose of 50 mg/kg HP; for half-life: elimination half-life; for half-life / AUC(0-inf) / AUC(0-t) / Cmax / Tmax / MRT last / MRT inf: single oral dose of 50 mg/kg HP; for MRT last: read-out: MRT(0−t); for MRT inf: read-out: MRT(0−∞). As to the method:
All of the animals were fasted for 12 h before receiving HP and were then allowed to eat for 4 h after administration. The dosing solutions used for the animal studies were prepared by dissolving the required amounts of HP in distilled water. […] The plasma was separated and stored at 2–8°C until analysis. […] Louis, MO, USA) and then mixed with 180 μL of acetonitrile (Merck, Darmstadt, Germany) to precipitate protein. After centrifugation, aliquots (10 μL each) of the supernatant were used for analysis. […] The mobile phase consisted of solvent A [0.1% formic acid (Dikma Technologies, Inc., CA, USA) in water] and solvent B [0.1% formic acid in methanol (Merck)]. The analytes were eluted at a flow rate of 0.2 mL/min, with the following gradient elution: from 0 to 0.6 min, 20% B; linear increase to 95% B in 0.2 min; 95% B for 4 min, decrease to 20% B in 0.2 min; and stabilization at initial conditions for 6 min. The mass spectrometer was set for multiple reaction monitoring and was operated in a positive-ion mode with an electrospray ionization source. Nitrogen was used as the curtain gas and the collision gas. The ion-spray voltage was set at 5,500 V, and the gas temperature at 500°C.

Take `COc1c(C)c2c(c(O)c1C/C=C(\C)CCC(=O)OCCN1CCOCC1)C(=O)OC2` [MMF, Mycophenolate mofetil]: in series [1] (HP 40 mg/kg, MMF 10 mg/kg, N = 8), the “peripheral blood monocytes at 48 h after LPS” value is reported as “significantly reduced peripheral blood monocytes”. Besides, in series [1] (data not shown), the “peripheral blood counts within the first 24 h after LPS” value is recorded as “did not change the peripheral blood counts”. Also, the “tubular apoptosis in LPS-induced AKI” value in series [2] is recorded as “ameliorated tubular apoptosis”. The “infiltration of CD45+ F4/80+ CD11c+ macrophages and CD45+Ly6G+ neutrophils into kidneys” value in series [3] is “produced similar inhibitory results”.
Take `O=c1ccc2cc(O)c(O)cc2o1` [Esculetin, esculetin]: in series [4], the Blood drug concentration entry is listed as “Not detectable”, the concentration at 0.08 h came out at 980 ± 800 nM, the concentration at 0.25 h is 2980 ± 1240 nM and the concentration at 0.5 h was found to be 3000 ± 1050 nM. In series [4], the concentration at 1 h is 2240 ± 400 nM, the concentration at 1.5 h stood at 2250 ± 1590 nM, the concentration at 2 h turned out to be 650 ± 220 nM and the concentration at 3 h turned out to be 680 ± 880 nM. Moreover, in series [4], the concentration at 4 h came to 300 ± 160 nM, the concentration at 8 h amounted to 120 ± 10 nM, the half-life was 2.3 h and the AUC(0-inf) came to 6.66 µM·h. Further, in series [4], the AUC(0-t) was found to be 6.27 µM·h, the Cmax was found to be 3000 nM, the Tmax amounted to 0.5 h and the MRT last was 1.82 h. Also, in series [4], the MRT inf was 2.38 h.
For `O=c1ccc2ccc(O[C@@H]3O[C@H](CO[C@@H]4OC[C@](O)(CO)[C@H]4O)[C@@H](O)[C@H](O)[C@H]3O)cc2o1` [apiosylskimmin], the “concentration of plasma apiosylskimmin” value in series [4] (mouse, in vivo, po, 50 mg/kg) is given as “too low to be determined”.
With `O=c1ccc2ccc(O)cc2o1` [Umbelliferone, umbelliferone], in series [4], the Blood drug concentration entry is “Not detectable”, the concentration at 0.08 h amounted to 4210 ± 2210 nM, the concentration at 0.25 h was 9120 ± 3280 nM and the concentration at 0.5 h stood at 7350 ± 2040 nM. In series [4], the concentration at 1 h came out at 3360 ± 760 nM, the concentration at 1.5 h was 2060 ± 790 nM, the concentration at 2 h amounted to 1450 ± 790 nM and the concentration at 3 h turned out to be 1100 ± 1300 nM. For the same compound, in series [4], the concentration at 4 h was found to be 590 ± 170 nM, the concentration at 8 h was found to be 140 ± 140 nM, the half-life is 1.69 h and the AUC(0-inf) worked out at 12.2 µM·h. For the same compound, in series [4], the AUC(0-t) came out at 11.8 µM·h, the Cmax came to 9120 nM, the Tmax is 0.25 h and the MRT last came out at 1.58 h. In addition, in series [4], the MRT inf was 1.82 h.

The term half-life denotes the time in which the quantity being followed falls by half. Read a high half-life as slow decline. In general, AUC(0-inf) refers to total exposure, with the tail of the curve extrapolated. High values mean more exposure, low ones less exposure. What is called AUC(0-t) is exposure summed from dosing to a finite time, without extrapolation to infinity. Lower therefore signals less exposure. What is called Cmax is the peak of the concentration-time curve. As usually defined, the Tmax is the time from dosing to the highest level.
